# Assay: hair relaxing with resorcinol under the conditions of M. Wong et al.
# Conditions: resorcinol at a concentration of 40% and at a pH of 7
# Description: The use of resorcinol at a concentration of 40% and at a pH of 7 for relaxing the hair has been reported by M. Wong et al.: M. Wong, G. Vis-surel, and J. Epps J. Soc. Cosmet. Chem. (1994), 45, 347-352.
smiles,measurement,value
Oc1cccc(O)c1 [resorcinol],relaxing of the hair,"do not relax it, but lead, at the very best, to slight uncurling"
